# Data from ChEMBL document CHEMBL1122946, “Folate antagonists. 21. Synthesis and antimalarial properties of 2,4-diamino-6-(benzylamino)pyrido[3,2-d]pyrimidines” (1985).
# Columns and labels:
# Mus musculus [1] = test: Mean survival time against trophozoite induced Plasmodium berghei in mice minus control was evaluated at a dose 40 mg/kg.; format: functional
# Mus musculus [2] = test: Mean survival time against trophozoite induced Plasmodium berghei in mice minus control was evaluated at a dose 160 mg/kg; 4 survived out of 10 animals at 60 days postinjection.; format: functional, organism-based; parameters: dose 160 mg/kg
# Mus musculus [3] = test: Mean survival time against trophozoite induced Plasmodium berghei in mice minus control was evaluated at a dose 320 mg/kg; 2 survived out of 5 animals at 60 days postinjection.; format: functional, organism-based; parameters: dose 320 mg/kg
# Mus musculus [4] = test: Mean survival time against trophozoite induced Plasmodium berghei in mice minus control was evaluated at a dose 640 mg/kg; 7 survived out of 10 animals at 60 days postinjection.; format: functional, organism-based; parameters: dose 640 mg/kg
# Mus musculus [5] = test: Mean survival time against trophozoite induced Plasmodium berghei in mice minus control was evaluated at a dose 20 mg/kg.; format: functional
# Mus musculus [6] = test: Mean survival time against trophozoite induced Plasmodium berghei in mice minus control was evaluated at a dose 80 mg/kg.; format: functional
# Mus musculus [7] = test: Mean survival time against trophozoite induced Plasmodium berghei in mice minus control was evaluated at a dose 40 mg/kg; 4 survived out of 10 animals at 60 days postinjection; format: functional, organism-based; parameters: dose 40 mg/kg
# Mus musculus [8] = test: Mean survival time against trophozoite induced Plasmodium berghei in mice minus control was evaluated at a dose 640 mg/kg; 10 toxic death occurred out of 10 animals on days 2-5 after injection; format: functional, organism-based; parameters: dose 640 mg/kg
# Mus musculus [9] = test: Mean survival time against trophozoite induced Plasmodium berghei in mice minus control was evaluated at a dose 80 mg/kg; 5 survived out of 5 animals at 60 days postinjection; format: functional, organism-based; parameters: dose 80 mg/kg
# Mus musculus [10] = test: Mean survival time against trophozoite induced Plasmodium berghei in mice minus control was evaluated at a dose 320 mg/kg; 3 toxic death occurred out of 5 animals on days 2-5 after injection; format: functional, organism-based; parameters: dose 320 mg/kg
# Mus musculus [11] = test: Mean survival time against trophozoite induced Plasmodium berghei in mice minus control was evaluated at a dose 160 mg/kg; 2 toxic death occurred out of 10 animals on days 2-5 after injection; format: functional, organism-based; parameters: dose 160 mg/kg
# Mus musculus [12] = test: Mean survival time against trophozoite induced Plasmodium berghei in mice minus control was evaluated at a dose 80 mg/kg; 4 survived out of 5 animals at 60 days postinjection.; format: functional, organism-based; parameters: dose 80 mg/kg
# Mus musculus [13] = test: Mean survival time against trophozoite induced Plasmodium berghei in mice minus control was evaluated at a dose 640 mg/kg.; format: functional
# Mus musculus [14] = test: Mean survival time against trophozoite induced Plasmodium berghei in mice minus control was evaluated at a dose 160 mg/kg; 1 survived out of 5 animals at 60 days postinjection.; format: functional, organism-based; parameters: dose 160 mg/kg
# Mus musculus [15] = test: Mean survival time against trophozoite induced Plasmodium berghei in mice minus control was evaluated at a dose 320 mg/kg.; format: functional
# Mus musculus [16] = test: Mean survival time against trophozoite induced Plasmodium berghei in mice minus control was evaluated at a dose 40 mg/kg; 8 survived out of 10 animals at 60 days postinjection.; format: functional, organism-based; parameters: dose 40 mg/kg
# Mus musculus [17] = test: Mean survival time against trophozoite induced Plasmodium berghei in mice minus control was evaluated at a dose 640 mg/kg; 5 toxic death occurred out of 5 animals on days 2-5 after injection.; format: functional, organism-based; parameters: dose 640 mg/kg
# Mus musculus [18] = test: Mean survival time against trophozoite induced Plasmodium berghei in mice minus control was evaluated at a dose 160 mg/kg.; format: functional
# Mus musculus [19] = test: Mean survival time against trophozoite induced Plasmodium berghei in mice minus control was evaluated at a dose 2.5 mg/kg.; format: functional
# Mus musculus [20] = test: Mean survival time against trophozoite induced Plasmodium berghei in mice minus control was evaluated at a dose 10 mg/kg.; format: functional
# Mus musculus [21] = test: Mean survival time against trophozoite induced Plasmodium berghei in mice minus control was evaluated at a dose 1.25 mg/kg.; format: functional
# Mus musculus [22] = test: Mean survival time against trophozoite induced Plasmodium berghei in mice minus control was evaluated at a dose 5 mg/kg.; format: functional
# Mus musculus [23] = test: Mean survival time against trophozoite induced Plasmodium berghei in mice minus control was evaluated at a dose 320 mg/kg; 5 survived out of 10 animals at 60 days postinjection.; format: functional, organism-based; parameters: dose 320 mg/kg
# Mus musculus [24] = test: Mean survival time against trophozoite induced Plasmodium berghei in mice minus control was evaluated at a dose 40 mg/kg; 6 survived out of 15 animals at 60 days postinjection.; format: functional, organism-based; parameters: dose 40 mg/kg
# Mus musculus [25] = test: Mean survival time against trophozoite induced Plasmodium berghei in mice minus control was evaluated at a dose 20 mg/kg; 4 survived out of 10 animals at 60 days postinjection.; format: functional, organism-based; parameters: dose 20 mg/kg
# Mus musculus [26] = test: Mean survival time against trophozoite induced Plasmodium berghei in mice minus control was evaluated at a dose 80 mg/kg; 5 survived out of 5 animals at 60 days postinjection.; format: functional, organism-based; parameters: dose 80 mg/kg
# Mus musculus [27] = test: Mean survival time against trophozoite induced Plasmodium berghei in mice minus control was evaluated at a dose 640 mg/kg; 10 survived out of 10 animals at 60 days postinjection.; format: functional, organism-based; parameters: dose 640 mg/kg
# Mus musculus [28] = test: Mean survival time against trophozoite induced Plasmodium berghei in mice minus control was evaluated at a dose 160 mg/kg; 10 survived out of 10 animals at 60 days postinjection.; format: functional, organism-based; parameters: dose 160 mg/kg
# Mus musculus [29] = test: Mean survival time against trophozoite induced Plasmodium berghei in mice minus control was evaluated at a dose 160 mg/kg; 5 survived out of 5 animals at 60 days postinjection.; format: functional, organism-based; parameters: dose 160 mg/kg
# Mus musculus [30] = test: Mean survival time against trophozoite induced Plasmodium berghei in mice minus control was evaluated at a dose 40 mg/kg; 5 survived out of 5 animals at 60 days postinjection.; format: functional, organism-based; parameters: dose 40 mg/kg
# Mus musculus [31] = test: Mean survival time against trophozoite induced Plasmodium berghei in mice minus control was evaluated at a dose 20 mg/kg; 3 survived out of 5 animals at 60 days postinjection; format: functional, organism-based; parameters: dose 20 mg/kg
# Mus musculus [32] = test: Mean survival time against trophozoite induced Plasmodium berghei in mice minus control was evaluated at a dose 640 mg/kg; 5 survived out of 5 animals at 60 days postinjection.; format: functional, organism-based; parameters: dose 640 mg/kg
# Mus musculus [33] = test: Mean survival time against trophozoite induced Plasmodium berghei in mice minus control was evaluated at a dose 320 mg/kg; 5 survived out of 5 animals at 60 days postinjection.; format: functional, organism-based; parameters: dose 320 mg/kg
# Mus musculus [34] = test: Mean survival time against trophozoite induced Plasmodium berghei in mice minus control was evaluated at a dose 40 mg/kg; 10 survived out of 10 animals at 60 days postinjection.; format: functional, organism-based; parameters: dose 40 mg/kg
# Mus musculus [35] = test: Mean survival time against trophozoite induced Plasmodium berghei in mice minus control was evaluated at a dose 20 mg/kg; 8 survived out of 10 animals at 60 days postinjection.; format: functional, organism-based; parameters: dose 20 mg/kg
# Mus musculus [36] = test: Mean survival time against trophozoite induced Plasmodium berghei in mice minus control was evaluated at a dose 40 mg/kg; format: functional
# Mus musculus [37] = test: Mean survival time against trophozoite induced Plasmodium berghei in mice minus control was evaluated at a dose 160 mg/kg; format: functional
smiles,measurement,setting,value
Nc1nc(N)c2nc(N3CCCCC3Cc3ccc(Cl)cc3)ccc2n1 (configuration not stated),Delta MST,Mus musculus [1],5.1 days
same,Delta MST,Mus musculus [2],Survivals 4/10
same,Delta MST,Mus musculus [3],Survivals 2/5
same,Delta MST,Mus musculus [4],Survivals 7/10
same,Delta MST,Mus musculus [5],2.9 days
same,Delta MST,Mus musculus [6],9.1 days
CCN(Cc1ccccc1)c1ccc2nc(N)nc(N)c2n1,Delta MST,Mus musculus [7],Survivals 4/10
same,Delta MST,Mus musculus [8],Toxic Deaths 10/10
same,Delta MST,Mus musculus [9],Survivals 5/5
same,Delta MST,Mus musculus [10],Toxic Deaths 3/5
same,Delta MST,Mus musculus [11],Toxic Deaths 2/10
same,Delta MST,Mus musculus [5],9.7 days
CN(Cc1ccc(C(F)(F)F)cc1)c1ccc2nc(N)nc(N)c2n1,Delta MST,Mus musculus [12],Survivals 4/5
same,Delta MST,Mus musculus [13],2.5 days
same,Delta MST,Mus musculus [14],Survivals 1/5
same,Delta MST,Mus musculus [15],2.9 days
same,Delta MST,Mus musculus [5],8.1 days
same,Delta MST,Mus musculus [16],Survivals 8/10
Nc1nc(N)c2nc(N3CCCCC3)ccc2n1,Delta MST,Mus musculus [1],0.3 days
same,Delta MST,Mus musculus [17],Toxic Deaths 5/5
same,Delta MST,Mus musculus [18],0.4 days
Nc1nc(N)c2nc(N(C=O)Cc3ccc(Cl)c(Cl)c3)ccc2n1,Delta MST,Mus musculus [19],5.3 days
same,Delta MST,Mus musculus [20],16.3 days
same,Delta MST,Mus musculus [21],1.9 days
same,Delta MST,Mus musculus [22],14.1 days
same,Delta MST,Mus musculus [23],Survivals 5/10
same,Delta MST,Mus musculus [24],Survivals 6/15
same,Delta MST,Mus musculus [25],Survivals 4/10
same,Delta MST,Mus musculus [26],Survivals 5/5
same,Delta MST,Mus musculus [27],Survivals 10/10
same,Delta MST,Mus musculus [28],Survivals 10/10
CN(Cc1cccc(Cl)c1)c1ccc2nc(N)nc(N)c2n1,Delta MST,Mus musculus [29],Survivals 5/5
same,Delta MST,Mus musculus [30],Survivals 5/5
same,Delta MST,Mus musculus [31],Survivals 3/5
same,Delta MST,Mus musculus [32],Survivals 5/5
same,Delta MST,Mus musculus [26],Survivals 5/5
same,Delta MST,Mus musculus [33],Survivals 5/5
CN(Cc1ccc(Cl)c(Cl)c1)c1ccc2nc(N)nc(N)c2n1,Delta MST,Mus musculus [29],Survivals 5/5
same,Delta MST,Mus musculus [19],4.3 days
same,Delta MST,Mus musculus [20],11.9 days
same,Delta MST,Mus musculus [21],2.9 days
same,Delta MST,Mus musculus [22],9.1 days
same,Delta MST,Mus musculus [34],Survivals 10/10
same,Delta MST,Mus musculus [35],Survivals 8/10
same,Delta MST,Mus musculus [26],Survivals 5/5
same,Delta MST,Mus musculus [33],Survivals 5/5
CN(Cc1ccc(Cl)cc1)c1ccc2nc(N)nc(N)c2n1,Delta MST,Mus musculus [36],1.1 days
same,Delta MST,Mus musculus [13],1.3 days
same,Delta MST,Mus musculus [37],1.1 days
CC(c1ccc(Cl)c(Cl)c1)N(C)c1ccc2nc(N)nc(N)c2n1 (configuration not stated),Delta MST,Mus musculus [1],1.7 days
same,Delta MST,Mus musculus [13],3.9 days
same,Delta MST,Mus musculus [18],2.3 days
